Test results as given in US10874669B2 (WAYNE STATE UNIVERSITY, priority 2018, dated 2020).
“Also recorded” adds a separate entry of the source. Read-outs that look alike come from different tables or passages of the source.

Tests used:
cloned rat D3 receptors = cloned rat D3 receptors (Rattus norvegicus (Rat), UniProt P19020); test: [3H]spiroperidol competition binding, rat D3 receptors in HEK-293 cells; details: rat D3 in HEK-293 cells; values of Table 3
Procedure: A well established radioligand competition assay was carried out to evaluate binding affinity of the test compounds and were compared with that of the reference agent (S)-5-OH-DPAT (Table 3). Binding affinity to rat DA D2 and D3 receptors expressed in HEK-293 cells was determined as described by us previously. […] This indicated highest tolerance of the 4-substituted carbazole derivative for interaction with the D2 and D3 receptors.
All these procedures were described by us previously.

human DA D2 receptors = human DA D2 receptors (Homo sapiens (Human), UniProt P14416); test: [35S]GTPγS binding stimulation, human D2 receptors in CHO cells; type: biochemical; details: for Emax: compared with maximum stimulation by full agonist DA
Sequence of human DA D2 receptors (P14416 whole entry): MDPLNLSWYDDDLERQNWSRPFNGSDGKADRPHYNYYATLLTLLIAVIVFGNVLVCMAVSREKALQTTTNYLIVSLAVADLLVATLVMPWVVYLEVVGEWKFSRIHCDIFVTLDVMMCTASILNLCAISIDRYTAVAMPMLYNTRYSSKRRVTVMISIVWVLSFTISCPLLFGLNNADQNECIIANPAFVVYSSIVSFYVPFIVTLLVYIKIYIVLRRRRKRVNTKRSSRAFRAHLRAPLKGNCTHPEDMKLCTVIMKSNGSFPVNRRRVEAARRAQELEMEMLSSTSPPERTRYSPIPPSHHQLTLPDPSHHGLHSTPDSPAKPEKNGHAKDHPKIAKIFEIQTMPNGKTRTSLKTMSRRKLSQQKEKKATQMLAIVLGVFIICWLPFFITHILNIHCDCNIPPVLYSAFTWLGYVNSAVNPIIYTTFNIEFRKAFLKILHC

human DA D3 receptors = human DA D3 receptors (Homo sapiens (Human), UniProt P35462); test: [35S]GTPγS binding stimulation, human D3 receptors in CHO cells; type: biochemical; details: for Emax: compared with maximum stimulation by full agonist DA
Sequence of human DA D3 receptors (P35462 whole entry): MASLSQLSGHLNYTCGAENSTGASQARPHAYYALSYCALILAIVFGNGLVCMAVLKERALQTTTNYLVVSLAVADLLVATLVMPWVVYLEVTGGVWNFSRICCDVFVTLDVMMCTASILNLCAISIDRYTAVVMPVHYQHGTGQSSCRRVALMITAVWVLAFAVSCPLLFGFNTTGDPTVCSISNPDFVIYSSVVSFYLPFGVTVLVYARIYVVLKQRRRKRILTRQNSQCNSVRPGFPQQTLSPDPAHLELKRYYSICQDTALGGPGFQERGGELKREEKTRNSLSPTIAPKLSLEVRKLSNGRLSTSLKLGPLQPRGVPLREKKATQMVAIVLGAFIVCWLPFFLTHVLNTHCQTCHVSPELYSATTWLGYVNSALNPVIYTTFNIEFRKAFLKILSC

PC12 cells [1] = test: MTT cell viability, compounds alone; type: cell-based, rat
Procedure: (§1) To investigate the neuroprotection property of the selected target molecules (−)-91b, (−)-95a and (−)-95c against 6-OHDA-induced cytotoxicity, we used dopaminergic rat adrenal Pheochromocytoma PC12 cells. As reported above, treatment of PC12 cells with 6-OHDA at 75 μM for 24 h produced ˜50% loss in cells viability and this concentration was used in subsequent experiments. […] However, (−)-95a produced some incremental toxicity starting at 20 μM dose (FIG. 4B). The potential neuroprotective effects of (−)-91b, (−)-95a and (−)-95c against 6-OHDA-induced toxicity were evaluated next. […] At those concentration both drugs increased cell survival by ˜20% compared to 6-OHDA (75 μM) treated alone (FIGS. 4D and 4F), indicating neuroprotective effect of these drugs. […] This could be due to the fact that the compound by itself produced toxicity to the cells at doses ≥20 μM and the presence of 6-OHDA enhanced the toxicity (FIG. 4B).
PC12 cells (ATCC CRL1721.1, Manassas, Va., USA), a rat adrenal pheochromocytoma cell line, were cultured in T-75 flasks (Greiner Bio One, Frickenhausen, Germany) and maintained in RPMI 1640 medium supplemented with 10% heat inactivated horse serum, 5% fetal bovine serum, 100 U/ml penicillin, and 100 μg/mL streptomycin at 37° C. in 95% air/5% CO2. Stock solutions of (−)-91b, (−)-95a, (−)-95c, and 6-hydroxydopamine (6-OHDA) were prepared in dimethylsulfoxide (DMSO) and aliquots were stored at −20° C. and −80° C., respectively. […]
PC12 cells were plated at 17000 cells/well density in 100 μL of media in 96-well plates and incubated at 37° C. under 5% CO2 atmosphere for 24 h. […] The absorbance was measured on a microplate reader (Biotek Epoch, Winooski, Vt., USA) at 570 nm with background correction performed at 690 nm. Data from at least three experiments were analyzed using GraphPad software (version 6, San Diego, Calif., USA). Cell viability was defined as […] compared to untreated controls.

PC12 cells [2] = test: MTT neuroprotection against 6-OHDA-induced toxicity; type: cell-based, rat; details: for concentration of greatest protective effect: 24 h pretreatment, then 75 μM 6-OHDA 24 h; for increase in cell survival compared to 6-OHDA treated alone: at concentration of greatest protective effect, 75 μM 6-OHDA
Procedure: as §1
PC12 cells (ATCC CRL1721.1, Manassas, Va., USA), a rat adrenal pheochromocytoma cell line, were cultured in T-75 flasks (Greiner Bio One, Frickenhausen, Germany) and maintained in RPMI 1640 medium supplemented with 10% heat inactivated horse serum, 5% fetal bovine serum, 100 U/ml penicillin, and 100 μg/mL streptomycin at 37° C. in 95% air/5% CO2. Stock solutions of (−)-91b, (−)-95a, (−)-95c, and 6-hydroxydopamine (6-OHDA) were prepared in dimethylsulfoxide (DMSO) and aliquots were stored at −20° C. and −80° C., respectively. For all experiments assessing neuroprotective effects of the test compounds, PC12 cells were pretreated with indicated concentrations of (−)-91b, (−)-95a and (−)-95c for 24 h and then treated with 75 μM 6-OHDA for another 24 h. The control cells were treated with above media containing 0.01% DMSO only.
PC12 cells were plated at 17000 cells/well density in 100 μL of media in 96-well plates and incubated at 37° C. under 5% CO2 atmosphere for 24 h. Cells were treated with varying concentrations of the test compounds to determine their direct effect on cell viability. Neuroprotection experiments were conducted by treating cells for 24 h with varying concentrations of (−)-91b, (−)-95a and (−)-95c. Then the drug containing media was replaced with fresh culture media followed by treatment with 75 μM of 6-OHDA alone for an additional 24 h under the same condition. After incubation for 24 h, 5 mg/mL MTT solution (prepared in Dulbecco's phosphate-buffered saline) was added to the cells (to a final concentration of 0.5 mg/mL) and the plates were further incubated at 37° C. in 95% air/5% CO2 atmosphere for 3-4 h to produce dark-blue formazan crystals. Afterward, the plates were centrifuged at 450 g for 10 min and the supernatants were carefully removed. Formazan crystals were dissolved by adding 100 μL of methanol:DMSO (1:1) mixture to each well and shaking gently at 400 rpm for 30 min at room temperature on a Thermomix R shaker (Eppendorf, Hamburg, Germany). The absorbance was measured on a microplate reader (Biotek Epoch, Winooski, Vt., USA) at 570 nm with background correction performed at 690 nm. Data from at least three experiments were analyzed using GraphPad software (version 6, San Diego, Calif., USA). Cell viability was defined as […] compared to untreated controls.

PC12 cells [3] = test: MTT viability of PC12 cells treated with seeded α-syn aggregates; type: cell-based, rat; details: 30D samples, 24 h treatment, compared to control (seeded α-syn alone 37%)
Procedure: When PC12 cells were treated with the aggregates formed by 0.5% PFFs seeding at 30D, it was observed that the viability went down to 37% when compared to control. […] The viability values of PC12 cells when treated with α-syn seeded samples in the presence of (−)-91b and (−)-95a were 71% and 72% at 30D when compared to control (FIG. 5B).
Further, the cytotoxicity of the aggregates formed was evaluated in PC12 cells. Briefly, PC12 cells were treated with α-syn aggregates such that its concentration is 10 μM. 24 h following treatments, viability was measured by MTT assay as described previously.

[4] = test system: reserpine-induced hypolocomotion in rats; test: Reversal of reserpine-induced hypolocomotion in rats; details: 10 μMol/kg, ip; for duration of locomotor activation: locomotion monitored for 6 h; for reversal of reserpine-induced akinesia / hypolocomotion (horizontal activity): reserpine 5 mg/kg sc, 18 h pretreatment, rats
Procedure: In this model depletion of catecholamines by reserpine results in catalepsy in rats.
The following commercially available drug was used in the experiment: reserpine hydrochloride (Alfa Aesar). […] The compounds for this study were administered in a volume of 0.1-0.2 mL for subcutaneous administration and 0.5-0.7 ml for interaperitoneal administration into each rat.
In rodent studies, animals were male and female Sprague-Dawley rats from Harlan (Indianapolis, Ind.) weighing 220-225 g unless otherwise specified. Animals were maintained in sawdust-lined cages in a temperature and humidity controlled environment at 22±1° C. and 60±5% humidity, respectively. A 12 h light/dark cycle was maintained, with lights on from 6:00 a.m. to 6:00 p.m. They were group-housed with unrestricted access to food and water. All experiments were performed during the light component.
Reserpine (5.0 mg/kg, sc) was administered 18 h before the injection of drug or vehicle. The rats were placed individually in the chambers for 1 h for acclimatization before administration of the test drugs or vehicle. Immediately after administration of drug or vehicle, animals were individually placed in Opto-Varimex 4 animal activity monitor chamber (Columbus Instruments, Ohio, USA) to start measuring locomotor activity. Locomotion was monitored for 6 h. […] The data were presented as horizontal activity (HACTV). […] The data were analyzed by one-way analysis of variance (ANOVA) followed by Dunnett's post hoc test.

Sequence of cloned rat D3 receptors (P19020 whole entry): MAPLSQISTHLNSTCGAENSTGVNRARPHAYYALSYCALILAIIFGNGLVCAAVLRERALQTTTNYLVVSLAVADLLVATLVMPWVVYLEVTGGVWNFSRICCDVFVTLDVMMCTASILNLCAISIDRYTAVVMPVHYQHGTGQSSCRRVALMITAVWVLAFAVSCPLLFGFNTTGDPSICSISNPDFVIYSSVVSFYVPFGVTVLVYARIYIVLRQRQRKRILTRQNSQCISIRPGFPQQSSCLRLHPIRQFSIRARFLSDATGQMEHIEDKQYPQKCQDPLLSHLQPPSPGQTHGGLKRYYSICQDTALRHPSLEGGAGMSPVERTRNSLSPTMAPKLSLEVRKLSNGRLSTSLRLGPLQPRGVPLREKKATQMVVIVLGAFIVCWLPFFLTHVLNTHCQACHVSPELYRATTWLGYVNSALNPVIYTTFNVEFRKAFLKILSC

| EC50 (human DA D2 receptors; CHO cells, read-out: EC50 (GTPγS), D2) [nM] | EC50 (human DA D3 receptors; CHO cells, read-out: EC50 (GTPγS), D3) [nM] | SMILES | Ki (cloned rat D3 receptors) [nM] | Emax (human DA D2 receptors) [%] | Emax (human DA D3 receptors) [%] | cell viability, compound alone (PC12 cells [1]; 0.01-30 μM, compared to untreated controls) | concentration of greatest protective effect (PC12 cells [2]) [µM] | increase in cell survival compared to 6-OHDA treated alone (PC12 cells [2]) [%] | viability of PC12 cells treated with α-syn seeded samples formed with compound (PC12 cells [3]) [%] | duration of locomotor activation [4] | reversal of reserpine-induced akinesia / hypolocomotion (horizontal activity) [4] | EC50 (human DA D2 receptors) [nM] | EC50 (human DA D3 receptors) [nM] | dose at which compound alone produced toxicity (PC12 cells [1]; compound alone) [µM] |
| --- | --- | --- | --- | --- | --- | --- | --- | --- | --- | --- | --- | --- | --- | --- |
| 48.7 | 0.96 | CCCN(CCN1CCN(c2ccc3[nH]c4ccccc4c3c2)CC1)[C@H]1CCc2nc(N)sc2C1 [(−)-91b, (S)—N^6-(2-(4-(9H-carbazol-3-yl)piperazin-1-yl)ethyl)-N^6-propyl-4,5,6,7-tetrahydrobenzo[d]thiazole-2,6-diamine] | 3.8 | 87 to 93 | 87 to 93 | no cells loss | 5 | ~20 | 71 | significant enhancement of locomotion for the duration of the study of 6 h | significantly reversed akinesia; also recorded: significantly different | – | – | – |
| – | – | CCCN(CCN1CCN(c2ccc3c(c2)[nH]c2ccccc23)CC1)[C@H]1CCc2c(O)cccc2C1 [Compound (−)-95a, (S)-6-((2-(4-(9H-carbazol-2-yl)piperazin-1-yl)ethyl)(propyl)amino)-5,6,7,8-tetrahydronaphthalen-1-ol] | 0.4 | 85 to 92 | 85 to 92 | – | 10 | 15 | 72 | significant enhancement of locomotion for the duration of the study of 6 h | significantly reversed akinesia; also recorded: highest in vivo activity; also recorded: significantly different | 0.87 | 0.23 | ≥ 20 |
